{"source": "patent US8748395B2", "about": "“Cell-permeable peptide inhibitors of the JNK signal transduction pathway” (Xigen Inflammation Ltd., priority 2006, dated 2014)", "key": {"gerbil": {"system": "gerbil", "details": "in vivo; cited from earlier work"}, "[1]": {"system": "primary embryonic cultures and differentiated PC12 cells", "details": "dosages that inhibit activation of JNKs; cited from earlier work"}, "JNK": {"system": "JNK", "details": "JBDs; cited from earlier work"}, "WiDr cells": {"system": "WiDr cells", "test": "Irradiation (30 Gy) induced apoptosis of WiDr cells", "format": "cell-based, human", "details": "1 μM added 30 minutes before 30 Gy, analyzed 48 hours later", "method": "JNK is also activated by ionizing radiation. To determine whether inventive TAT-IB(s) peptides would provide protection against radiation-induced JNK damage, “WiDr” cells were irradiated (30 Gy) in presence or absence of D-TAT, inventive L-TAT-IB1(s) or inventive D-TAT-IB1(s) peptides (1 μM added 30 minutes before irradiation). Control cells (CTRL) were not irradiated. Cells were analyzed 48 hours later by means of PI and Hoechst 3342 staining, as described above. N=3, SEM are indicated."}, "AP-1 DNA binding complex": {"system": "AP-1 DNA binding complex", "test": "Gel retardation assay with AP-1 probe, HeLa cell nuclear extracts, TNF-α", "format": "cell-based", "details": "peptide added 30 minutes before TNF-α 5 ng/ml"}, "βTC-3 cells": {"system": "βTC-3 cells", "test": "Inhibition of IL-1β induced pancreatic β-cell death by TAT-IB peptides", "format": "cell-based", "method": "We investigated the effects of the inventive L-TAT-IB(s) peptides on the promotion of β-cell apoptosis elicited by IL-1. PTC-3 cell cultures were incubated for 30 minutes with 1 μM of inventive L-TAT-IB1(s) peptides followed by 10 ng/mL of IL-1. A second addition of peptide (1 μM) was performed 24 hours later. Apoptotic cells were counted after two days of incubation with IL-1β using propidium iodide (red stained cell are dead cells) and Hoechst 33342 (blue stained cell are cells with intact plasma membrane) nuclear staining.\nLong term inhibition of IL-1 induced cells death was examined by treating βTC-3 cells as described above, except that incubation of the cells with the peptides and IL-1β was sustained for 12 days. Additional peptides (1 μM) were added each day and additional IL-1β (10 ng/mL) was added every 2 days. […] Taken together, these experiments provide evidence that inventive TAT-IB(s) peptides are biologically active molecules able to prevent the effects of JNK signaling on cell fate.\nInhibition of IL-1β induced pancreatic β-cell death by the inventive D-TAT-IB1(s) peptide was analyzed. βTC-3 cells were incubated as described above for 30 minutes with one single addition of the indicated peptides (1, μM), then IL-1 (10 ng/ml) was added.\nApoptotic cells were then counted after two days of incubation with IL-1β by use of Propidium Iodide and Hoechst 33342 nuclear staining. A minimum of 1,000 cells were counted for each experiment. Standard Error of the Means (SEM) are indicated, n=5.\nLong term inhibition of IL-1P induced cell-death by the D-TAT-IB1 peptide was also analyzed. βTC-3 cells were incubated as above for 30 minutes with one single addition of the indicated peptides (1 μM), then IL-1β (10 ng/ml) was added, followed by addition of the cytokine every two days. Apoptotic cells were then counted after 15 days of incubation with IL-1 by use of propidium iodide and Hoechst 33342 nuclear staining. […] A minimum of 1.000 cells were counted for each experiment."}, "[2]": {"system": "recombinant JNK1, JNK2 and JNK3", "test": "Solid phase kinase assay: JNK-mediated phosphorylation of c-Jun, ATF2 and Elk1", "format": "biochemical", "method": "(§1) The effects of the peptides on JNKs-mediated phosphorylation of their target transcription factors were investigated in vitro. Recombinant and non activated JNK1, JNK2 and JNK3 were produced using a TRANSCRIPTION AND TRANSLATION rabbit reticulocyte lysate kit (PROMEGA®) and used in solid phase kinase assays with c-jun, ATF2 and Elk1, either alone or fused to glutathione-S-transferase (GST), as substrates. Dose response studies were performed wherein inventive L-TAT or L-TAT-IB1(s) peptides (0-25 μM) were mixed with the recombinant JNK1, JNK2, or JNK3 kinases in reaction buffer (20 mM Tris-acetate, 1 mM EGTA, 10 mM p-nitrophenyl-phosphate (pNPP), 5 mM sodium pyrophosphate, 10 mM p-glycerophosphate, 1 mM dithiothreitol) for 20 minutes. The kinase reactions were then initiated by the addition of 10 mM MgCl2 and 5 pCi^33P-γ-dATP and 1 μg of either GST-Jun (aa 1-89), GST-AFT2 (aa 1-96) or GST-ELK1 (aa 307-428). GST-fusion proteins were purchased from Stratagene (La Jolla, Calif.).\n(§2) Ten μL of glutathione-agarose beads were also added to the mixture. Reaction products were then separated by SDS-PAGE on a denaturing 10% polyacrylamide gel. Gels were dried and subsequently exposed to X-ray films (Kodak).\nThe ability of D-TAT, inventive D-TAT-IB1(s) and inventive L-TAT-IB1 (s) peptides (0-250 μM dosage study) to inhibit GST-Jun (aa 1-73) phosphorylation by recombinant JNK1, JNK2, and JNK3 by were analyzed as described above. Overall, D-TAT-IB1(s) peptide decreased JNK-mediated phosphorylation of c-Jun, but at levels approximately 10-20 fold less efficiently than L-TAT-IB1(s)."}, "JNK3": {"biological_target": "T1, JNK3 (Homo sapiens, UniProt P53779)", "T1 construct": "host or cells: rabbit reticulocyte lysate, in vitro transcription/translation", "T1 sequence (P53779 whole entry, species assumed, the tested form may be a part)": "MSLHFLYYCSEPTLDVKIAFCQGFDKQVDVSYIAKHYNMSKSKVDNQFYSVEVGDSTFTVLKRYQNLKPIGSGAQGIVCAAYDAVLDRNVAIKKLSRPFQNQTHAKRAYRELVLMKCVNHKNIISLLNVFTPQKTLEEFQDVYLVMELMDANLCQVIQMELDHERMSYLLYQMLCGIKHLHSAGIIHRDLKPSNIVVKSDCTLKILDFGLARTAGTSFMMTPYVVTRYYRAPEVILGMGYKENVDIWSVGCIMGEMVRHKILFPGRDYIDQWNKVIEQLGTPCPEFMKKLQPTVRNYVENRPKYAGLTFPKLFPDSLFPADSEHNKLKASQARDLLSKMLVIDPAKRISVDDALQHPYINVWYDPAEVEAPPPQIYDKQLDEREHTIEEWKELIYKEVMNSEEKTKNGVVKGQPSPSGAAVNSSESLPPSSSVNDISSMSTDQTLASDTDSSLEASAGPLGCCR", "test": "Solid phase kinase assay: JNK3 phosphorylation of Elk1", "format": "biochemical", "details": "dose response 0-25 μM, GST-ELK1 (aa 307-428)", "method": "as §1, §2"}, "[3]": {"system": "JNKs activated by stressful stimuli", "test": "c-Jun phosphorylation by activated JNKs pulled down with GST-Jun from UV-irradiated HeLa or IL-1β treated βTC-3 cells", "format": "biochemical", "details": "25 μM peptide, 20 minutes", "method": "The effects of the L-TAT or inventive L-TAT-IB1(s) peptides on JNKs activated by stressful stimuli were evaluated using GST-Jun to pull down JNKs from UV-light irradiated HeLa cells or IL-1β treated PTC cells. PTC cells were cultured as described above. HeLa cells were cultured in DMEM medium supplemented with 10% Fetal Calf Serum, 100 μg/mL Streptomycin, 100 units/ml Penicillin and 2 mM Glutamine. One hour prior to being used for cell extract preparation, PTC cells were activated with IL-1β as described above, whereas HeLa cells were activated by UV-light (20 J/m^2). Cell extracts were prepared from control, UV-light irradiated HeLa cells and IL-1β treated βTC-3 cells by scraping the cell cultures in lysis buffer (20 mM Tris-acetate, 1 mM EGTA, 1% Triton X-100, 10 mM p-nitrophenyl-phosphate, 5 mM sodium pyrophosphate, 10 mMP-glycerophosphate, 1 mM dithiothreitol). Debris was removed by centrifugation for five minutes at 15,000 rpm in an SS-34 Beckman rotor. One-hundred μg extracts were incubated for one hour at room temperature with one μg GST-jun (amino acids 1-89) and 10 μL of glutathione-agarose beads (Sigma). Following four washes with the scraping buffer, the beads were resuspended in the same buffer supplemented with L-TAT or inventive L-TAT-IB1(s) peptides (25 μM) for 20 minutes. […]"}, "[4]": {"system": "activation of c-Jun by JNK", "test": "GAL4 reporter system (GAL-Jun, 5xGAL-LUC) in HeLa cells with MKK4/MKK7 co-transfection", "format": "cell-based", "from_the_text": "To determine whether the inventive cell-permeable peptides could block JNK signaling in vivo, we used a heterologous GAL4 system. HeLa cells, cultured as described above, were co-transfected with the 5×GAL-LUC reporter vector together with the GAL-Jun expression construct (Stratagene) comprising the activation domain of c-jun (amino acids 1-89) linked to the GAL4 DNA-binding domain. Activation of JNK was achieved by the co-transfection of vectors expressing the directly upstream kinases MKK4 and MKK7 (see Whitmarsh et al., Science 285: 1573 (1999)). Briefly, 3×10^5 cells were transfected with the plasmids in 3.5-cm dishes using DOTAP (Boehringer Mannheim) following instructions from the manufacturer. For experiments involving GAL-Jun, 20 ng of the plasmid was transfected with 1 μg of the reporter plasmid pFR-Luc (Stratagene) and 0.5 μg of either MKK4 or MKK7 expressing plasmids. Three hours following transfection, cell media were changed and TAT and TAT-IB1(s) peptides (1 μM) were added. The luciferase activities were measured 16 hours later using the “Dual Reporter System” from PROMEGA® after normalization to protein content. […] Because HeLa cells express JNK1 and JNK2 isoforms but not JNK3, we transfected cells with JNK3."}, "βTC-3 cell cultures": {"system": "βTC-3 cell cultures", "test": "Cellular import of fluorescein-labeled TAT and TAT-IB1(s) peptides", "format": "cell-based", "method": "The ability of the L- and D-enantiomeric forms of TAT and inventive TAT-IB1(s) peptides (“TAT-IB peptides”) to enter cells was evaluated. L-TAT, D-TAT, inventive L-TAT-IB1(s), and inventive D-TAT-IB1(s) peptides [SEQ ID NOs: 5, 6, 9 and 12, respectively] were labeled by N-terminal addition of a glycine residue conjugated to fluorescein. Labeled peptides (1 μM) were added to βTC-3 cell cultures, which were maintained as described in Example 3. At predetermined times cells were washed with PBS and fixed for five minutes in ice-cold methanol-acetone (1:1) before being examined under a fluorescence microscope. Fluorescein-labeled BSA (1 μM, 12 moles/mole BSA) was used as a control."}}, "data": [{"compound": "N#CC(c1ccnc(NCCc2cccnc2)n1)c1nc2ccccc2s1", "note": "(centres unmarked) [AS601245]", "values": [{"measurement": "protection against delayed loss of hippocampal CA1 neurons", "setting": "gerbil", "value": "significant protection against the delayed loss of hippocampal CA1 neurons"}]}, {"compound": "CCSCc1ccc2c(c1)c1c3c(c4c5cc(CSCC)ccc5n5c4c1n2[C@H]1C[C@](O)(C(=O)OC)[C@]5(C)O1)CNC3=O", "note": "[CEP-1347]", "values": [{"measurement": "neuronal survival", "setting": "[1]", "value": "promotes neuronal survival at dosages that inhibit activation of the c-Jun amino-terminal kinases (JNKs)"}]}, {"compound": "PGTGCGDTYRPKRPTTLNLFPQVPRSQDT (PGTGCGDTYRPKRPTTLNLFPQVPRSQDT) [IB1]", "values": [{"measurement": "efficiency in binding JNK relative to c-Jun or ATF2", "setting": "JNK", "value": "approximately 100 fold"}]}, {"compound": "IPSPSVEEPHKHRPTTLRLTTLGAQDS (IPSPSVEEPHKHRPTTLRLTTLGAQDS) [IB2]", "values": [{"measurement": "efficiency in binding JNK relative to c-Jun or ATF2", "setting": "JNK", "value": "approximately 100 fold"}]}, {"compound": "H-GRKKRRQRRRPPRPKRPTTLNLFPQVPRSQD-OH [L-TAT-IB1(s)]", "values": [{"measurement": "prevention of irradiation induced apoptosis", "setting": "WiDr cells", "value": "able to prevent irradiation induced apoptosis"}, {"measurement": "formation of the AP-1 DNA binding complex", "setting": "AP-1 DNA binding complex", "value": "decrease the formation of the AP-1 DNA binding complex in the presence of TNF-α"}]}, {"compound": "TDQSRPVQPFLNLTTPRKPRYTDPPRRRQRRKKRG (TDQSRPVQPFLNLTTPRKPRYTDPPRRRQRRKKRG) [D-TAT-IB1, reference compound]", "values": [{"measurement": "decrease of IL-1 induced apoptosis", "setting": "βTC-3 cells; one single addition of peptide 1 μM, two days of IL-1β", "value": "decreased IL-1 induced apoptosis to a similar extent as L-TAT-IB peptides"}]}, {"compound": "TAT-IB(s): enantiomer not worded; the examples concerned name L-TAT-IB1(s) (SEQ ID NO: 9) as the tested peptide (GRKKRRQRRRPPRPKRPTTLNLFPQVPRSQD)", "values": [{"measurement": "inhibition of JNK family phosphorylation of target transcription factors, overall", "setting": "[2]", "value": "superior effects in inhibiting JNK family phosphorylation of their target transcription factors"}, {"measurement": "peptide dose giving nearly complete inhibition of c-Jun, ATF2 and Elk1 phosphorylation by JNKs", "setting": "[2]; dose response 0-25 μM, doses as low as", "value": 2.5, "unit": "µM"}, {"measurement": "inhibition of JNK3 phosphorylation of Elk1", "setting": "JNK3", "value": "absence of TAT-IB(s) inhibition of JNK3 phosphorylation of Elk1"}, {"measurement": "prevention of phosphorylation of c-Jun by activated JNKs", "setting": "[3]", "value": "efficiently prevented phosphorylation of c-Jun by activated JNKs"}, {"measurement": "activation of c-Jun following MKK4 and MKK7 mediated activation of JNK (luciferase)", "setting": "[4]; 1 μM peptide, luciferase measured 16 hours later", "value": "blocked activation of c-Jun following MKK4 and MKK7 mediated activation of JNK"}, {"measurement": "activation of c-Jun in cells transfected with JNK3", "setting": "[4]; HeLa cells transfected with JNK3, 1 μM peptide", "value": "inhibited JNK2 mediated activation of c-Jun"}, {"measurement": "inhibition of IL-1-induced apoptosis", "setting": "βTC-3 cells; 1 μM peptide, second addition at 24 hours, IL-1β 10 ng/mL for two days", "value": "inhibited IL-1-induced apoptosis of βTC-3 cells"}, {"measurement": "long term protection against IL-1 induced apoptosis", "setting": "βTC-3 cells; 12 days, peptide 1 μM added each day, IL-1β every 2 days", "value": "confers strong protection against apoptosis"}]}, {"compound": "NH2-GRKKRRQRRR-COOH (H-GRKKRRQRRR-OH) [L-TAT]", "values": [{"measurement": "entry of fluorescein labeled peptide into cells", "setting": "βTC-3 cell cultures; 1 μM labeled peptide added to culture medium, fluorescence microscope", "value": "efficiently and rapidly (less than five minutes) entered cells"}]}, {"compound": "NH2-RRRQRRKKRG-COOH (D-amino acids) [D-TAT]", "values": [{"measurement": "stability inside the cells", "setting": "βTC-3 cell cultures", "value": "extremely stable inside the cells"}]}]}
